Source: article PMC9995905, “Characteristics of antimicrobial peptide OaBac5mini and its bactericidal mechanism against Escherichia coli” (Frontiers in Veterinary Science, 2023)
“Also recorded” adds a separate entry of the source. Where no end group is shown, it is not given here.

Columns and labels:
E. coli O157:H7 = details: cited from earlier work
Protocol: Salt ions in serum are important factors affecting the antibacterial activity of AMPs in vivo because they can bind to the negatively charged groups of lipopolysaccharide (LPS), a monolayer molecule on the outer membrane of Gram-negative bacteria ([29]). […] But in the presence of physiological concentrations of CaCl2, the MIC of OaBac5mini increased four-fold and attained 100 μg/ml (Table 2). It has been reported that the ...

[1] = system: Gram-positive bacteria and C. albicans; details: cited from earlier work
Description: (§1) Antimicrobial peptides (AMPs) are small molecular peptides in living organisms and serve as natural barriers against the invasion of pathogenic microorganisms ([5]). They are often referred to as cationic host defense peptides (HDPs) or cationic antimicrobial peptides (CAMPs) ([6]). Cathelicidins are one of the best characterized AMP families. Each cathelicidin includes an N-terminal signal domain, a cathelin-like domain, and an antimicrobial C-terminal domain ([7]). Among them, the proline-rich antibacterial peptides (PrAMPs) have been attracting the close attention of researchers due to thei ...

Gram-negative bacteria = details: cited from earlier work
Description: as §1

E. coli ATCC 25922 [2] = experiment: Integrity of the inner membrane (DiSC3(5)); assay type: cell-based, Escherichia coli; details: 25, 50, 100 and 200 μg/ml; 1 μM DiSC3(5); within 30 min; P < 0.05; n = 3
Protocol: If the membrane is depolarized or disrupted, DiSC3(5) is released into the aqueous medium and leads to increased fluorescence. The DiSC3(5) assay was conducted following the instruction of Sautrey et al. ([26]) with minor modifications. […] Fluorescence units were investigated immediately using INFINITE 200 PRO (Infinite® 2000, TECAN, Austria) at the excitation wavelength of 620 nm and emission wavelength of 670 nm for 30 min at 1 min intervals. Triple experiments were conducted with three individual clones of E. coli ATCC 25922.

IPEC-J2 cells = assay type: cell-based, porcine
Protocol: The cells were maintained in CO2 incubator (Galaxy R, RS Biotech, Scotland) with 5% CO2 at 37°C. Real time cellular analysis (RTCA) was used to evaluate the proliferation and viability of IPEC-J2 cells. […] Real time cellular analysis was monitored using xCELLigence RTCA DP system (xCELLigence, ACEA biosciences, USA) for 100 h at 15 min intervals. The cell index was normalized by RTCA software 2.0 (xCELLigence, ACEA biosciences, USA).

E. coli ATCC 25922 [3] = assay type: cell-based, Escherichia coli
E. coli 17 = experiment: microbe, parasite or virus in culture; details: 17
Description: (§2) The strains of E. coli ATCC 25922 and S. aureus ATCC 25923 were purchased from the American Type Culture Collection (ATCC, Manassas, VA, United States). The strains of E. coli W13, E. coli IF4, E. coli 2, and E. coli 17 were individually isolated from the livers of diseased chickens infected by E. coli. The strains of S. aureus B5, S. aureus B9, S. aureus B54, and S. aureus B63 were individually isolated from the milk of cows with mastitis. These clinical isolates were all identified by the VITEK-32 system (bioMérieux, France) and PCR amplification sequencing.
(§3) MICs of OaBac5mini, amoxicillin, kanamycin, florfenicol and tetracycline were determined using the two-fold broth microdilution method according to the Clinical and Laboratory Standards Institute (CLSI) guidance ([21]). MIC values of the tested antibacterial agents were determined on three independent occasions. Escherichia coli ATCC 25922 was used as the quality control in all the susceptibility tests.

S. aureus B63 = experiment: microbe, parasite or virus in culture; details: B63
Description: as §2, §3

S. aureus B9 = experiment: microbe, parasite or virus in culture; details: B9
Description: as §2, §3

E. coli IF4 = experiment: microbe, parasite or virus in culture; details: IF4
Description: as §2, §3

S. aureus B5 = experiment: microbe, parasite or virus in culture; details: B5
Description: as §2, §3

E. coli 2 = experiment: microbe, parasite or virus in culture; details: 2
Description: as §2, §3

S. aureus B54 = experiment: microbe, parasite or virus in culture; details: B54
Description: as §2, §3

E. coli W13 = experiment: microbe, parasite or virus in culture; details: W13
Description: as §2, §3

S. aureus ATCC 25923 = experiment: microbe, parasite or virus in culture; details: ATCC 25923
Protocol: as §3

E. coli ATCC 25922 [4] = experiment: microbe, parasite or virus in culture; details: ATCC 25922
Protocol: as §3

E. coli ATCC 25922 [5] = experiment: Sensitivity to pH, temperature and repeated freeze-thawing (inhibition zone assay); assay type: physicochemical, Escherichia coli; details: 50 μg/ml, inhibition zone assay against E. coli ATCC 25922, repeated three times
Protocol: The sensitivities of OaBac5mini to different pH, temperature, digestive enzymes, and repeated freeze-thawing conditions were determined using the inhibition zone assay as previously described ([23]). For pH sensitivity, OaBac5mini was diluted with each solution whose pH was individually adjusted to 2, 3, 4, 5, 6, 7, 8, 9, 10, 11 with HCl or NaOH, and incubated for 2 h, followed by adjusting the pH to 7 to end the reaction. For temperature sensitivity, the diluted peptide was incubated at 30, 40, 50, 60, 70, 80, 90, and 100°C for 30 min. To determine the digestive enzymes sensitivity, OaBac5mini was incubated with 100 μg/ml pepsin (in pH 2 sterile water, sigma, USA), 5–100 μg/ml trypsin (in pH 6.8 KH2PO4 buffer, sigma, USA) and 100 μg/ml protease K (Solarbio, China) at 37°C for 3 h, respectively. To end the reaction after incubation, the pepsin buffer was adjusted to pH 8, the trypsin solution and protease K solution were incubated at 95°C for 10 min. For repeated freeze-thawing sensitivity, OaBac5mini was frozen and then thawed at room temperature 0–12 times. All the final concentrations of OaBac5mini in sensitivity tests were 50 μg/ml. All experiments were repeated three times.

In the case of RFRPPIRRPPIRPPFRPPFRPPVR [OaBac5mini], the “MIC against E. coli O157:H7 in the presence of 100 mM NaCl” value (E. coli O157:H7) is listed as “about 30 μg/ml”, the “MICs against Gram-positive bacteria and C. albicans” value [1] is listed as 16 to 64 µg/mL and the “MICs against Gram-negative bacteria” value (Gram-negative bacteria) is listed as 0.125 to 8 µg/mL. The “Average fluorescence intensity of DiSC3(5) (inner membrane integrity)” value (E. coli ATCC 25922 [2]) was “significantly increased”, the “Cell indexes of IPEC-J2 cells at 400 μg/ml compared to the control group” value (IPEC-J2 cells) was “didn't change significantly” and the “Cell indexes of treated IPEC-J2 cells compared with the control group” value (IPEC-J2 cells) was “significant increase”. For the same sequence, the “Increase of MIC in the presence of physiological concentration of CaCl2” value (E. coli ATCC 25922 [3]; 2.5 mM CaCl2 versus MH broth alone, E. coli ATCC 25922) was “four-fold”, the “MIC against E. coli ATCC 25922 in MH broth” value (E. coli ATCC 25922 [3]; ATCC 25922) was 25 µg/mL and the “MIC against E. coli ATCC 25922 in MH broth + CaCl2” value (E. coli ATCC 25922 [3]; ATCC 25922) was 100 µg/mL. The “MIC against E. coli ATCC 25922 in MH broth + FeCl3” value (E. coli ATCC 25922 [3]; ATCC 25922) was 16.67 µg/mL, the “MIC against E. coli ATCC 25922 in MH broth + KCl” value (E. coli ATCC 25922 [3]; ATCC 25922) was 20.83 µg/mL and the “MIC against E. coli ATCC 25922 in MH broth + MgCl2” value (E. coli ATCC 25922 [3]; ATCC 25922) was 50 µg/mL. For the same sequence, the “MIC against E. coli ATCC 25922 in MH broth + NH4Cl” value (E. coli ATCC 25922 [3]; ATCC 25922) was 12.5 µg/mL, the “MIC against E. coli ATCC 25922 in MH broth + NaCl” value (E. coli ATCC 25922 [3]; ATCC 25922) was 33.33 µg/mL and the “MIC against E. coli 17” value (E. coli 17) was 3.26 µg/mL. For the same sequence, the “MIC against S. aureus B63” value (S. aureus B63) was 208.33 µg/mL, the “MIC against S. aureus B9” value (S. aureus B9) was 250 µg/mL and the “MIC against E. coli IF4” value (E. coli IF4) was 2.60 µg/mL. The “MIC against S. aureus B5” value (S. aureus B5) was greater than 250 µg/mL, the “MIC against E. coli 2” value (E. coli 2) was 1.95 µg/mL and the “MIC against S. aureus B54” value (S. aureus B54) was 250 µg/mL. The “MIC against E. coli W13” value (E. coli W13) was 3.26 µg/mL, the “MIC against S. aureus ATCC 25923” value (S. aureus ATCC 25923) was greater than 250 µg/mL and the “MIC against E. coli ATCC 25922” value (E. coli ATCC 25922 [4]) was 25 µg/mL. For the same sequence, the “Antibacterial activity after treatment at high temperature” value (E. coli ATCC 25922 [5]; 30-100°C for 30 min) was “stable antibacterial activity”, the “Antibacterial activity after repeated freeze-thawing” value (E. coli ATCC 25922 [5]; frozen and thawed at room temperature 0-12 times) was “stable antibacterial activity” and the “Antibacterial activity after treatment at different pH” value (E. coli ATCC 25922 [5]; pH 2-11 (HCl or NaOH), 2 h, then adjusted to pH 7) was “stable antibacterial activity; also recorded: not significantly affected”.
